Measurements: ChEMBL document CHEMBL1150239, “Molecular characteristics for solid-state limited solubility” (J Med Chem, 2008)

How the values were obtained:
[1] = buffer, pH 10
[2] = Dissociation constant, pKa of the compound; type: physicochemical

SMILES	logS0 [1]	pKa [2]
CCN1c2ncccc2C(=O)N(C)c2ccc(Cl)nc21	-4.11	
CCN1c2ccccc2N(C)C(=O)c2cccnc21	-3.32	
CN1C(=O)c2cccnc2N(C(C)(C)C)c2ncccc21	-4.85	
COC(=O)c1cc2nc([S+]([O-])Cc3nccc(OC)c3OC)[nH]c2cc1C (stereo not drawn)	-4.41	
CCCCn1c(C)nc2c1c(=O)n(C)c(=O)n2C	-1.75	
CCCCCC1(CC)C(=O)NC(=O)NC1=O	-2.34	
CCOC(=O)OCn1c([S+]([O-])Cc2nccc(OC)c2OC)nc2cc(C(=O)OC)c(C)cc21 (stereo not drawn)	-5.21	
C=CCC1(CCCC)C(=O)NC(=O)NC1=O	-2.11	
CCN1c2ncccc2C(=O)N(C)c2c(C)cc(OC)nc21	-2.62	
Cc1ccnc2c1NC(C#N)c1cccnc1N2C1CC1 (stereo not drawn)	-4.74	
Cc1ccc2c(c1)C(=O)Nc1cc(N)ccc1O2	-3.93	
CCCCC1(CC=C(C)C)C(=O)NC(=O)NC1=O	-3.55	
CN1C(=O)c2cccnc2Oc2ccccc21	-3.76	
CC(C(=O)O)c1ccc(N2Cc3ccccc3C2=O)cc1 (single isomer, unassigned; (+)) [INDOPROFEN]	-4.72	4.6
C=CCOc1ccc(CC(=O)O)cc1Cl [ALCLOFENAC]	-3.13	
CCC[S+]([O-])CCCN(CC)CC(O)COc1ccc(C#N)cc1 (stereo not drawn) [ALMOKALANT]	-1.17	
C=CCc1ccccc1OCC(O)CNC(C)C (stereo not drawn) [ALPRENOLOL]	-2.83	
CCCCC[C@H](O)/C=C/[C@H]1[C@H](O)CC(=O)[C@@H]1CCCCCCC(=O)O [ALPROSTADIL]	-3.67	
CCOC(=O)c1ccc(N)cc1 [BENZOCAINE]	-2.34	
O=C(O)c1ccccc1 [BENZOIC ACID]	-1.58	
C[C@H]1C[C@H]2[C@@H]3CCC4=CC(=O)C=C[C@]4(C)[C@@]3(F)[C@@H](O)C[C@]2(C)[C@@]1(O)C(=O)CO [BETAMETHASONE]	-3.77	
C=C(Br)CC1(C(C)CC)C(=O)NC(=O)NC1=O (stereo not drawn) [BUTALLYLONAL]	-2.65	
CCCNC(=O)NS(=O)(=O)c1ccc(Cl)cc1 [CHLORPROPAMIDE]	-3.3	4.8
COC(=O)[C@H]1[C@@H](OC(=O)c2ccccc2)C[C@@H]2CC[C@H]1N2C [COCAINE]	-2.25	
C[C@]12C[C@H](O)[C@H]3[C@@H](CCC4=CC(=O)CC[C@@]43C)[C@@H]1CC[C@@H]2C(=O)CO [CORTICOSTERONE]	-3.28	
CC(=O)OCC(=O)[C@@]1(O)CC[C@H]2[C@@H]3CCC4=CC(=O)CC[C@]4(C)[C@H]3C(=O)C[C@@]21C [CORTISONE ACETATE]	-4.21	
CCC1(C2=CCCCC2)C(=O)NC(=O)NC1=O [CYCLOBARBITAL]	-2.12	
CC(C)Nc1cccnc1N1CCN(C(=O)c2cc3cc(NS(C)(=O)=O)ccc3[nH]2)CC1 [DELAVIRDINE]	-5.74	

SMILES	logS0 [1]	pKa [2]
NCCN1C(=O)CN=C(c2ccccc2F)c2cc(Cl)ccc21 [DESALKYLFLURAZEPAM]	-3.72	11.6
C[C@@H]1C[C@H]2[C@@H]3CCC4=CC(=O)C=C[C@]4(C)[C@@]3(F)[C@@H](O)C[C@]2(C)[C@@]1(O)C(=O)CO [DEXAMETHASONE]	-3.59	
CCCCC[C@H](O)/C=C/[C@H]1[C@H](O)CC(=O)[C@@H]1C/C=C\CCCC(=O)O [DINOPROSTONE]	-2.47	
CC(C)N(CCC(C(N)=O)(c1ccccc1)c1ccccn1)C(C)C (stereo not drawn) [DISOPYRAMIDE]	-2.38	10.1
CCOC(=O)c1ccc(O)cc1 [ETHYLPARABEN]	-2.38	8.3
COC1=CC(=O)C[C@@H](C)[C@]12Oc1c(Cl)c(OC)cc(OC)c1C2=O [GRISEOFULVIN]	-4.83	
CCC1(C2=CCCCCC2)C(=O)NC(=O)NC1=O [HEPTABARBITAL]	-2.91	
CC(=O)OCC(=O)[C@@]1(O)CC[C@H]2[C@@H]3CCC4=CC(=O)CC[C@]4(C)[C@H]3[C@@H](O)C[C@@]21C [HYDROCORTISONE ACETATE]	-4.34	
CC(=O)N1CCN(c2ccc(OC[C@H]3CO[C@](Cn4ccnc4)(c4ccc(Cl)cc4Cl)O3)cc2)CC1 [KETOCONAZOLE]	-3.8	
CC(CCc1ccccc1)NCC(O)c1ccc(O)c(C(N)=O)c1 (stereo not drawn) [LABETALOL]	-3.41	
O=C1Nc2ccc(Cl)cc2C(c2ccccc2Cl)=NC1O (stereo not drawn) [LORAZEPAM]	-3.74	11.5
Cc1ccccc1N1C(=O)c2cc(S(N)(=O)=O)c(Cl)cc2NC1C (stereo not drawn) [METOLAZONE]	-4.33	
COc1ccc2[nH]c([S+]([O-])Cc3ncc(C)c(OC)c3C)nc2c1 (stereo not drawn) [OMEPRAZOLE]	-3.4	8.9
Nc1ccc(/N=N/c2ccccc2)c(N)n1 [PHENAZOPYRIDINE]	-4.53	
O=C1NC(=O)C(c2ccccc2)(c2ccccc2)N1 [PHENYTOIN]	-4.15	
CN1C(C(=O)Nc2ccccn2)=C(O)c2ccccc2S1(=O)=O [PIROXICAM]	-4.03	
CC(=O)OCC(=O)[C@@]1(O)CC[C@H]2[C@@H]3CCC4=CC(=O)C=C[C@]4(C)[C@H]3[C@@H](O)C[C@@]21C [PREDNISOLONE ACETATE]	-4.37	
COc1cc(NC(C)CCCN)c2ncccc2c1 (stereo not drawn) [PRIMAQUINE]	-2.52	
CCN(CC)CCOC(=O)c1ccc(N)cc1 [PROCAINE]	-1.78	
CC(C)NCC(O)COc1cccc2ccccc12 (stereo not drawn) [PROPRANOLOL]	-3.92	
CCC1(C2=CC3CCC(C2)C3)C(=O)NC(=O)NC1=O (stereo not drawn) [REPOSAL]	-2.7	
O=C(O)c1ccccc1O [SALICYLIC ACID]	-1.8	
C=CCC1(C(C)CCC)C(=O)NC(=O)NC1=O (stereo not drawn) [SECOBARBITAL]	-2.36	7.8
CC(=O)OCC(=O)[C@@]1(O)[C@H](OC(C)=O)C[C@H]2[C@@H]3CCC4=CC(=O)C=C[C@]4(C)[C@@]3(F)[C@@H](O)C[C@@]21C [TRIAMCINOLONE DIACETATE]	-4.31	
Cc1nnc2n1-c1ccc(Cl)cc1C(c1ccccc1Cl)=NC2 [TRIAZOLAM]	-4.04	
COc1cc2c(N)nc(N3CCN(C(=O)OCC(C)(C)O)CC3)nc2c(OC)c1OC [TRIMAZOSIN]	-3.64	
CC/C=C(\C)C1(CC)C(=O)NC(=O)NC1=O [VINBARBITAL]	-2.3	
